Measured values published in patent publication EP0054898A1, “Formamidine derivatives, preparation and use thereof, pharmaceutical compositions containing them and their preparation” (HOECHST AKTIENGESELLSCHAFT, priority 1980, dated 1982).

Tests used:
Serum-Lipoproteine = assay: Effect on serum lipoproteins (cholesterol in serum and in ultracentrifuge fractions) in rats after 7 days of oral treatment; format: in vivo, männlichen Wistar-Ratten; details: for % Veränderung des Cholesterins gegenüber Kontrolle im Serum / % Veränderung des Cholesterins gegenüber Kontrolle in der Serum-Lipoprotein-Fraktion HDL / % Veränderung des Cholesterins gegenüber Kontrolle in der Serum-Lipoprotein-Fraktion LDL / % Veränderung des Cholesterins gegenüber Kontrolle in der Serum-Lipoprotein-Fraktion VLDL: oral (gavage), 7 days, pooled serum
Source text: Die Wirkung der angeführten Verbindungen auf die Serum- Lipoproteine wurde an männlichen Wistar-Ratten untersucht, die 7 Tage per Schlundsonde mit den angeführten in Polyäthylenglykol 400 suspendierten Verbindungen behandelt wurden. Außerdem wurde eine Kontrollgruppe, die nur das Lösungsmittel Polyäthylenglykol 400 erhielt, mitgeführt, sowie eine Ratten-Gruppe, die zum Vergleich das Standardhypolipidämikum Clofibrat, ebenfalls in Polyäthylenglykol 400 gelöst, erhielt. Pro Gruppe wurden in der Regel 10 Tiere eingesetzt, denen am Ende der Behandlung das Blut nach leichter Äthernakose aus dem Orbitalplexus entnommen wurde. Das daraus gewonnene Serum wurde gepoolt. Die Serum- Lipoproteine wurden in der Ultrazentrifuge in folgende Dichteklassen getrennt: • VLDL 1,006; LDL 1,006 bis 1,04; HDL 1,04 bis 1,21.
Aus den in der Ultrazentrifuge isolierten LipoproteinFraktionen wurde das darin enthaltene Choletserin vollenzymatisch nach der CHOD-PAP-Methode mittels der Testkombination von Boehringer Mannheim bestimmt und die Werte in ug/ml Serum umgerechnet. In der angeführten Tabelle (S.8) ist die Veränderung des Lipoprotein-Cholesterins in der behandelten Gruppe gegenüber einer unter gleichen Bedingungen mitgeführten Kontrollgruppe angegeben.
% Veränderung der Lipoproteine in Ratten-Serum nach siebentägiger oraler Behandlung mit den Verbindungen

Relative liver weight = format: in vivo; details: in wirksamer Dosis; result in words
Source text: Es ist allgemein anerkannt, daß für die Entstehung artericsklerotischer Gefäßveränderungen, insbesondere der coronaren Herzkrankheit, Hyperlipoproteinämien einen wesentlichen Risikofaktor darstellen. Für die Prophylaxe und die Regression von atherosklerotischen Veränderungen kommt daher der Senkung erhöhter Serum-Lipoproteine eine außerordentliche Bedeutung zu. Hierbei kommt es aber auf ganz bestimmte Klassen von Serum-Lipoproteinen an, da die low density (LDL) und very low density-Lipoproteine (VLDL) einen atherogenen Risikofaktor darstellen, während die high density-Lipoproteine (HDL) eine Schutzfunktion gegenüber der coronaren Herzkrankheit darstellen. Hypolipidämika sollen demnach VLDL-Cholesterin und LDL-Cholesterin im Serum erniedrigen, dabei aber die HDL-Cholesterin-Konzentration nach Möglichkeit unbeeinflußt lassen oder sogar erhöhen. Die erfindungsgemäßen Verbindungen haben wertvolle therapeutische Eigenschaften. So erniedrigen sie vor allem die Konzentration von LDL und VLDL, während die HDL-Fraktion entweder in wesentlich geringerem Maße erniedrigt, oder sogar erhöht wird..Sie können daher zur Prophylaxe und Regression von atherosklerotischen Veränderungen herangezogen werden, indem sie einen kausalen Risikofaktor ausschalten. Hierzu zählen nicht nur die primären Hyperlipoproteinämien, sondern auch gewisse.sekundäre Hyperlipidämien wie sie z.B. beim Diabtes vorkommen.

Structure (SMILES) | % Veränderung des Cholesterins gegenüber Kontrolle im Serum (Serum-Lipoproteine; Dosis 10 mg/kg/Tag) | % Veränderung des Cholesterins gegenüber Kontrolle in der Serum-Lipoprotein-Fraktion HDL (Serum-Lipoproteine; Dosis 10 mg/kg/Tag) | % Veränderung des Cholesterins gegenüber Kontrolle in der Serum-Lipoprotein-Fraktion LDL (Serum-Lipoproteine; Dosis 10 mg/kg/Tag) [%] | % Veränderung des Cholesterins gegenüber Kontrolle in der Serum-Lipoprotein-Fraktion VLDL (Serum-Lipoproteine; Dosis 10 mg/kg/Tag) [%] | also measured
Cc1ccc(S(=O)(=O)N(C=Nc2ccc(Oc3ccccc3)cc2)Cc2ccccc2)cc1 [Beispiel 2] | -4% | +3% | -22 | -50 | 
CCCN(C=Nc1ccc(Oc2ccccc2)cc1)S(=O)(=O)c1ccc(C)cc1 [Beispiel 3] | -5% | +8% | -22 | -32 | 
C#CCN(C=Nc1ccc(Oc2ccccc2)cc1)S(=O)(=O)c1ccc(C)cc1 [Beispiel 7] | -1% | +5% | -22 | -51 | 
Cc1ccc(S(=O)(=O)N(C)C=Nc2ccc(Oc3ccccc3)cc2)cc1 [Beispiel 12] | -6% | -1% | -42 | -70 | 
Cc1ccc(S(=O)(=O)N(C)C=Nc2ccc(Oc3ccc(Cl)cc3Cl)cc2)cc1 [Beispiel 13] | -6% | +1% | -39 | -100 | 
Cc1ccc(S(=O)(=O)N(C)C=Nc2ccc(Sc3ccccc3)cc2)cc1 [Beispiel 25] | -5% | +5% | -45 | -70 | 
CCCCN(C=Nc1ccc(Sc2ccccc2)cc1)S(=O)(=O)c1ccc(C)cc1 [Beispiel 27] |  |  |  |  | % Veränderung des Cholesterins gegenüber Kontrolle im Serum (Serum-Lipoproteine; Dosis 3 mg/kg/Tag): -18%; % Veränderung des Cholesterins gegenüber Kontrolle in der Serum-Lipoprotein-Fraktion HDL (Serum-Lipoproteine; Dosis 3 mg/kg/Tag): -2%; % Veränderung des Cholesterins gegenüber Kontrolle in der Serum-Lipoprotein-Fraktion LDL (Serum-Lipoproteine; Dosis 3 mg/kg/Tag): -50%; % Veränderung des Cholesterins gegenüber Kontrolle in der Serum-Lipoprotein-Fraktion VLDL (Serum-Lipoproteine; Dosis 3 mg/kg/Tag): -13%
Cc1ccc(S(=O)(=O)N(C=Nc2ccc(Sc3ccccc3)cc2)C(C)C)cc1 [Beispiel 28] |  |  |  |  | % Veränderung des Cholesterins gegenüber Kontrolle im Serum (Serum-Lipoproteine; Dosis 3 mg/kg/Tag): -5%; % Veränderung des Cholesterins gegenüber Kontrolle in der Serum-Lipoprotein-Fraktion HDL (Serum-Lipoproteine; Dosis 3 mg/kg/Tag): +2%; % Veränderung des Cholesterins gegenüber Kontrolle in der Serum-Lipoprotein-Fraktion LDL (Serum-Lipoproteine; Dosis 3 mg/kg/Tag): -25%; % Veränderung des Cholesterins gegenüber Kontrolle in der Serum-Lipoprotein-Fraktion VLDL (Serum-Lipoproteine; Dosis 3 mg/kg/Tag): -5%
CCN(C=Nc1ccc(Sc2ccccc2)cc1)S(=O)(=O)c1ccc(C)cc1 [Beispiel 30] | -3% | -1% | -27 |  | 
Cc1ccc(S(=O)(=O)N(C)C=Nc2c(C)cc(C)cc2C)cc1 [Beispiel 34] | +10% | +14% | -36 |  | 
Cc1ccc(S(=O)(=O)N(C)C=Nc2cc(C(F)(F)F)cc(C(F)(F)F)c2)cc1 [Beispiel 36] | -2% |  |  |  | 
Cc1ccc(S(=O)(=O)N(C)C=Nc2ccccc2C)cc1 [Beispiel 37] | -8% | +3% | -51 |  | 
Cc1ccc(S(=O)(=O)N(C)C=Nc2ccc(Cl)cc2C)cc1 [Beispiel 38] | -8% | +2% | -36 | -30 | 
Cc1ccc(S(=O)(=O)N(C)C=Nc2ccc(Cl)cc2C(F)(F)F)cc1 [Beispiel 39] |  |  |  |  | % Veränderung des Cholesterins gegenüber Kontrolle im Serum (Serum-Lipoproteine; Dosis 3 mg/kg/Tag): -3%; % Veränderung des Cholesterins gegenüber Kontrolle in der Serum-Lipoprotein-Fraktion HDL (Serum-Lipoproteine; Dosis 3 mg/kg/Tag): -7%; % Veränderung des Cholesterins gegenüber Kontrolle in der Serum-Lipoprotein-Fraktion LDL (Serum-Lipoproteine; Dosis 3 mg/kg/Tag): -26%; % Veränderung des Cholesterins gegenüber Kontrolle in der Serum-Lipoprotein-Fraktion VLDL (Serum-Lipoproteine; Dosis 3 mg/kg/Tag): -26%
CN(C#N)C=Nc1ccc(Oc2ccccc2)cc1 [Beispiel 48] |  |  |  |  | % Veränderung des Cholesterins gegenüber Kontrolle im Serum (Serum-Lipoproteine; Dosis 3 mg/kg/Tag): -8%; % Veränderung des Cholesterins gegenüber Kontrolle in der Serum-Lipoprotein-Fraktion HDL (Serum-Lipoproteine; Dosis 3 mg/kg/Tag): -2%; % Veränderung des Cholesterins gegenüber Kontrolle in der Serum-Lipoprotein-Fraktion LDL (Serum-Lipoproteine; Dosis 3 mg/kg/Tag): -56%
CN(C#N)C=Nc1ccc(Oc2ccc(Cl)cc2Cl)cc1 [Beispiel 49] |  |  |  |  | % Veränderung des Cholesterins gegenüber Kontrolle im Serum (Serum-Lipoproteine; Dosis 3 mg/kg/Tag): +2%; % Veränderung des Cholesterins gegenüber Kontrolle in der Serum-Lipoprotein-Fraktion HDL (Serum-Lipoproteine; Dosis 3 mg/kg/Tag): +2%; % Veränderung des Cholesterins gegenüber Kontrolle in der Serum-Lipoprotein-Fraktion LDL (Serum-Lipoproteine; Dosis 3 mg/kg/Tag): -48%
CN(C#N)C=Nc1ccc(Oc2ccc(Cl)cc2)c(Cl)c1 [Beispiel 50] |  |  |  |  | % Veränderung des Cholesterins gegenüber Kontrolle in der Serum-Lipoprotein-Fraktion VLDL (Serum-Lipoproteine; Dosis 1 mg/kg/Tag): +3%
CCOC(=O)C(C)(C)Oc1ccc(Cl)cc1 [Clofibrat, reference compound] |  |  |  |  | % Veränderung des Cholesterins gegenüber Kontrolle im Serum (Serum-Lipoproteine; Dosis 100 mg/kg/Tag): -24%; % Veränderung des Cholesterins gegenüber Kontrolle in der Serum-Lipoprotein-Fraktion HDL (Serum-Lipoproteine; Dosis 100 mg/kg/Tag): -33%; % Veränderung des Cholesterins gegenüber Kontrolle in der Serum-Lipoprotein-Fraktion LDL (Serum-Lipoproteine; Dosis 100 mg/kg/Tag): -25%; % Veränderung des Cholesterins gegenüber Kontrolle in der Serum-Lipoprotein-Fraktion VLDL (Serum-Lipoproteine; Dosis 100 mg/kg/Tag): -30%; Wirkung auf die Lipoproteinfraktionen (VLDL, LDL, HDL) (Serum-Lipoproteine; summary in words of the table, 7 days oral): etwa gleichstarke Senkung der LDL-Fraktion und der HDL-Fraktion; relatives Lebergewicht (Relative liver weight): starken Erhöhung des relativen Lebergewichts
